Among the data in PubChem BioAssay AID330 (DTP/NCI, 2004) are T/C values, retold here.

“And” between values parts separate entries of the source, which are not always exact repeats. Equal entries are not always repeated. Inconclusive results and toxic doses are left out.

The assay deals with P388 leukemia ip, CD2F1 mice, survival T/C. The experiment in a line: NCI In Vivo Anticancer Drug Screen. Data for tumor model P388 Leukemia (intraperitoneal) in CD2F1 (CDF1) mice. The note with it: endpoint: median survival time, higher = longer survival. A digest of the protocol: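 Mice carrying the transplanted tumor received test compound or vehicle. Survival was recorded in each group, and the value is the treated-group measurement divided by that of the vehicle-treated control group.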

[1] abbreviates: dose: 12.5 mg/kg/injection, schedule: Q01DX005 (ip), vehicle: saline with Tween-80.
[2] abbreviates: dose: 25.0 mg/kg/injection, schedule: Q01DX005 (ip), vehicle: saline with Tween-80.
The mark [3] stands for this setting: dose: 50.0 mg/kg/injection, schedule: Q01DX005 (ip), vehicle: saline with Tween-80.
Setting [4] is: dose: 60.0 mg/kg/injection, schedule: Q01DX005 (ip), vehicle: saline with Tween-80.
Where [5] appears, read: dose: 120.0 mg/kg/injection, schedule: Q01DX005 (ip), vehicle: saline with Tween-80.
Where [6] appears, read: dose: 240.0 mg/kg/injection, schedule: Q01DX005 (ip), vehicle: saline with Tween-80.
The mark [7] stands for this setting: dose: 50.0 mg/kg/injection, schedule: Q01DX009 (ip), vehicle: Klucel (hydroxypropylcellulose) (HPC).
[8] abbreviates: dose: 100.0 mg/kg/injection, schedule: Q01DX005 (ip), vehicle: saline with Tween-80.
The mark [9] stands for this setting: dose: 50.0 mg/kg/injection, schedule: Q01DX005 (ip), vehicle: Klucel (hydroxypropylcellulose) (HPC).
[10] abbreviates: dose: 100.0 mg/kg/injection, schedule: Q01DX005 (ip), vehicle: Klucel (hydroxypropylcellulose) (HPC).
The mark [11] stands for this setting: dose: 200.0 mg/kg/injection, schedule: Q01DX005 (ip), vehicle: Klucel (hydroxypropylcellulose) (HPC).
The mark [12] stands for this setting: dose: 50.0 mg/kg/injection, schedule: Q01DX009 (ip), vehicle: saline.
Setting [13] is: dose: 100.0 mg/kg/injection, schedule: Q01DX009 (ip), vehicle: saline.
[14] abbreviates: dose: 200.0 mg/kg/injection, schedule: Q01DX009 (ip), vehicle: saline.

On to `c1ccc2nc(N=Nc3cnc4ccccc4n3)cnc2c1`, for which the T/C by setting is: (dose: 12.5 mg/kg/injection, schedule: Q01DX001 (ip), vehicle: saline with Tween-80) 100 % of control and 93 % of control and 94 % of control; under setting [1], 94 % of control; (dose: 25.0 mg/kg/injection, schedule: Q01DX001 (ip), vehicle: saline with Tween-80) 99 % of control and 94 % of control; under setting [2], 94 % of control; (dose: 50.0 mg/kg/injection, schedule: Q01DX001 (ip), vehicle: saline with Tween-80) 100 % of control and 86 % of control and 97 % of control; under setting [3], 97 % of control.

As for `C=COC(=O)C(Cc1ccc([N+](=O)[O-])cc1)NC(=O)OCc1ccccc1` (stereo not given), the T/C (dose: 100.0 mg/kg/injection, schedule: Q04DX002 (ip), vehicle: Klucel (hydroxypropylcellulose) (HPC)) was 97 % of control; the T/C (dose: 200.0 mg/kg/injection, schedule: Q04DX002 (ip), vehicle: Klucel (hydroxypropylcellulose) (HPC)) was 100 % of control; the T/C (dose: 400.0 mg/kg/injection, schedule: Q04DX002 (ip), vehicle: Klucel (hydroxypropylcellulose) (HPC)) is 92 % of control.

With `CC(C)C1OCC(CO)([N+](=O)[O-])CO1` (stereo not given), the T/C runs as follows: under setting [4], 102 % of control; under setting [5], 100 % of control; under setting [6], 93 % of control.

In the case of `COc1ccc(C(=O)CC2(O)C(=O)Nc3ccccc32)cc1O` (stereo not given), the T/C under setting [4] was 105 % of control, the T/C under setting [5] was 102 % of control and the T/C under setting [6] is 102 % of control.

For the compound `O=C(/C=C/c1ccc(Cl)cc1Cl)c1ccc(Cl)cc1`, the T/C runs as follows: (dose: 100.0 mg/kg/injection, schedule: Q04DX003 (ip), vehicle: saline with Tween-80) 100 % of control; (dose: 200.0 mg/kg/injection, schedule: Q04DX003 (ip), vehicle: saline with Tween-80) 95 % of control; (dose: 400.0 mg/kg/injection, schedule: Q04DX003 (ip), vehicle: saline with Tween-80) 90 % of control.

Regarding `COc1ccc2nc(C)cc(N/N=C/c3cccc(C)n3)c2c1`, the T/C by setting is: (dose: 12.5 mg/kg/injection, schedule: Q01DX009 (ip), vehicle: Klucel (hydroxypropylcellulose) (HPC)) 99 % of control and 104 % of control; (dose: 25.0 mg/kg/injection, schedule: Q01DX009 (ip), vehicle: Klucel (hydroxypropylcellulose) (HPC)) 99 % of control and 105 % of control; under setting [7], 113 % of control and 122 % of control.

As to `Clc1cc2nsnc2cc1Cl`, the T/C reads like this: (dose: 50.0 mg/kg/injection, schedule: Q04DX003 (ip), vehicle: saline) 100 % of control; (dose: 100.0 mg/kg/injection, schedule: Q04DX003 (ip), vehicle: saline) 94 % of control; (dose: 200.0 mg/kg/injection, schedule: Q04DX003 (ip), vehicle: saline) 104 % of control; (dose: 400.0 mg/kg/injection, schedule: Q04DX003 (ip), vehicle: saline) 101 % of control.

Turning to `O=C(O)CCc1c2ccc(=O)c(O)c-2oc2c(O)c(O)ccc12`, the T/C is, setting by setting: under setting [4], 104 % of control; under setting [5], 98 % of control; under setting [6], 103 % of control.

`CCCC1c2c(ccc3c2OCO3)CC[N+]1(C)CCN(CC)CC` (stereo not given): the T/C by setting is: (dose: 6.25 mg/kg/injection, schedule: Q01DX005 (ip), vehicle: saline with Tween-80) 109 % of control; under setting [1], 98 % of control; under setting [2], 100 % of control and 105 % of control.

For the compound `COc1cccc2c1C(=O)c1c(O)c3c(c(O)c1C2=O)C[C@@](O)(C(=O)CO)C[C@@H]3OC1CC(NC(C)=O)C(O)C(C)O1` (stereo not given in full), the T/C (dose: 0.2 mg/kg/injection, schedule: Q01DX009 (ip), vehicle: water) is 96 % of control; the T/C (dose: 0.39 mg/kg/injection, schedule: Q01DX009 (ip), vehicle: water) was 107 % of control; the T/C (dose: 0.78 mg/kg/injection, schedule: Q01DX009 (ip), vehicle: water) is 116 % of control; the T/C (dose: 1.56 mg/kg/injection, schedule: Q01DX009 (ip), vehicle: water) is 122 % of control; the T/C (dose: 3.13 mg/kg/injection, schedule: Q01DX009 (ip), vehicle: water) was 120 % of control; the T/C (dose: 25.0 mg/kg/injection, schedule: Q01DX009 (ip), vehicle: other) was 156 % of control. Also, the T/C was 195 % of control (dose: 50.0 mg/kg/injection, schedule: Q01DX009 (ip), vehicle: other); 172 % of control (dose: 50.0 mg/kg/injection, schedule: Q01DX009 (ip), vehicle: water); 201 % of control (dose: 100.0 mg/kg/injection, schedule: Q01DX009 (ip), vehicle: other); 192 % of control (dose: 200.0 mg/kg/injection, schedule: Q01DX009 (ip), vehicle: other).

Regarding `COc1cccc(C(=O)CCN(C)C(=O)OCc2ccccc2)c1OCc1ccccc1`, the T/C runs as follows: under setting [2], 94 % of control; under setting [3], 103 % of control; under setting [8], 103 % of control.

As to `CCCn1c(O)c(C=N)c(=O)[nH]c1=O`, the T/C was 87 % of control (dose: 100.0 mg/kg/injection, schedule: Q01DX009 (ip), vehicle: saline with Tween-80) and 95 % of control (dose: 200.0 mg/kg/injection, schedule: Q01DX009 (ip), vehicle: saline with Tween-80).

In the case of `S=C=Nc1ccc(-c2csc(Nc3ccnc4cc(Cl)ccc34)n2)cc1`, the T/C is, setting by setting: under setting [1], 101 % of control; under setting [2], 98 % of control; under setting [3], 99 % of control and 91 % of control; under setting [8], 94 % of control.

For the compound `Cc1nnc(Cl)c(C#N)c1C`, the T/C runs as follows: under setting [9], 104 % of control; under setting [10], 92 % of control; under setting [11], 95 % of control.

In the case of `COc1ccc(CSC(=S)Nc2cccc(S(F)(F)(F)(F)F)c2)cc1`, the T/C (dose: 12.5 mg/kg/injection, schedule: Q01DX009 (ip), vehicle: saline with Tween-80) is 97 % of control; the T/C (dose: 12.5 mg/kg/injection, schedule: Q01DX009 (ip), vehicle: saline) is 104 % of control; the T/C (dose: 25.0 mg/kg/injection, schedule: Q01DX009 (ip), vehicle: saline with Tween-80) was 100 % of control; the T/C (dose: 25.0 mg/kg/injection, schedule: Q01DX009 (ip), vehicle: saline) was 98 % of control; the T/C (dose: 50.0 mg/kg/injection, schedule: Q01DX009 (ip), vehicle: saline with Tween-80) was 100 % of control; the T/C under setting [12] is 100 % of control and 119 % of control. Further, the T/C is, setting by setting: under setting [13], 116 % of control; under setting [14], 118 % of control.

On to `O=c1oc(-c2ccc(Cl)cc2[N+](=O)[O-])nc2ccccc12`, for which the T/C reads like this: under setting [12], 108 % of control; under setting [13], 104 % of control; under setting [14], 100 % of control.

With `CC12C(=O)OC(=O)C1(C)C1CCC2O1` (stereo not given), the T/C is, setting by setting: (dose: 0.93 mg/kg/injection, schedule: Q01DX005 (ip), vehicle: saline with Tween-80) 109 % of control; (dose: 1.87 mg/kg/injection, schedule: Q01DX005 (ip), vehicle: saline with Tween-80) 102 % of control.

With `COc1cc(C(C)(C)C)c2oc3c(c2c1)C(=O)C(C(C)(C)C)=CC3(OC)OC`, the T/C under setting [12] is 104 % of control, the T/C under setting [13] was 100 % of control and the T/C under setting [14] was 97 % of control.

Regarding `CC(=O)OC1C=CCC2C(=O)OC(=O)C12` (stereo not given), the T/C is 103 % of control and 90 % of control (dose: 30.0 mg/kg/injection, schedule: Q01DX005 (ip), vehicle: Klucel (hydroxypropylcellulose) (HPC)); 100 % of control (dose: 60.0 mg/kg/injection, schedule: Q01DX005 (ip), vehicle: Klucel (hydroxypropylcellulose) (HPC)); 105 % of control and 90 % of control (dose: 120.0 mg/kg/injection, schedule: Q01DX005 (ip), vehicle: Klucel (hydroxypropylcellulose) (HPC)).

For `COc1ccc(OCCCBr)c(Br)c1`, the T/C was 101 % of control under setting [9], 97 % of control under setting [10] and 104 % of control under setting [11].

Turning to `c1ccc2[nH]c(-c3nc4ccccc4s3)cc2c1`, the T/C is 106 % of control under setting [7]; 108 % of control (dose: 100.0 mg/kg/injection, schedule: Q01DX009 (ip), vehicle: Klucel (hydroxypropylcellulose) (HPC)); 98 % of control (dose: 200.0 mg/kg/injection, schedule: Q01DX009 (ip), vehicle: Klucel (hydroxypropylcellulose) (HPC)).

Regarding `C(=N\NC1=NCCN1)/c1c[nH]c2ccccc12`, the T/C under setting [3] was 101 % of control and the T/C under setting [8] is 97 % of control.
